The record followed here is ChEMBL document CHEMBL1133782, “Solid-phase synthesis of cyclic alkoxyketones, inhibitors of the cysteine protease cathepsin K” (Bioorg Med Chem Lett, 2001).

A value given as a limit tells only on which side of the number the result lay.

In this assay the target is T1, Cathepsin K (Homo sapiens, UniProt P43235).
T1 sequence (P43235 whole entry): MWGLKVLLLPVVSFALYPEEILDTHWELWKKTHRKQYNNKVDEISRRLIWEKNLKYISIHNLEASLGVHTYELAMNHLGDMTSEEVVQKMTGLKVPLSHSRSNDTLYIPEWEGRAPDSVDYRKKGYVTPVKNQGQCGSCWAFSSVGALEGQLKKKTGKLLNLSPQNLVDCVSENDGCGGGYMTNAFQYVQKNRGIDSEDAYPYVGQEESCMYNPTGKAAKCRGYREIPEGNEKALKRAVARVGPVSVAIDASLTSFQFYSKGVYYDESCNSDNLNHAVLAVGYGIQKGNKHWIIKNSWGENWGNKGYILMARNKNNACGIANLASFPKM
The assay can be described thus: Inhibitory activity against human cysteine protease, cathepsin K.
Broadly, the Ki is the equilibrium dissociation constant of an inhibitor or competing ligand from its target. Low values mean tighter binding, high ones weaker binding. `CC(C)C[C@H](NC(=O)c1ccc(F)c(F)c1)C(=O)NC1COCC1=O` (some centres undefined): the Ki turned out to be 0.82 µM.

Compound `CC(C)C[C@H](NC(=O)c1cc2ccccc2s1)C(=O)NC1COCC1=O` (some centres undefined) gave a Ki of 0.011 µM. Compound `CC(C)[C@H](NC(=O)c1cc2ccccc2s1)C(=O)NC1COCC1=O` (some centres undefined) displayed a Ki of over 10 µM. Under `CC(C)C[C@H](NC(=O)c1cc2ccccc2o1)C(=O)NC1COCC1=O` (some centres undefined) stands 0.053 µM; under `O=C(N[C@@H](Cn1ccnc1)C(=O)NC1COCC1=O)c1cc2ccccc2s1` (some centres undefined), over 10 µM; under `COCC(=O)[C@H](C)NC(=O)[C@H](CC(C)C)NC(=O)OCc1ccccc1`, 0.06 µM. Then `O=C(CNC(=O)c1cc2ccccc2s1)NC1COCC1=O` (centres undefined), with over 10 µM; and `NC(=O)CC[C@H](NC(=O)c1cc2ccccc2s1)C(=O)NC1COCC1=O` (some centres undefined), with over 10 µM. Compound `NCCCC[C@H](NC(=O)c1cc2ccccc2s1)C(=O)NC1COCC1=O` (some centres undefined) came in with a Ki of over 10 µM. Then `O=C(O)CC[C@H](NC(=O)c1cc2ccccc2s1)C(=O)NC1COCC1=O` (some centres undefined), with over 10 µM; and `CC(C)C[C@H](NC(=O)c1ccccc1)C(=O)NC1COCC1=O` (some centres undefined), with 0.18 µM; and `CC(C)C[C@H](NC(=O)c1ccc(-c2ccccc2)cc1)C(=O)NC1COCC1=O` (some centres undefined), with 0.019 µM. Compound `CC(C)C[C@H](NC(=O)c1ccc2ccccc2c1)C(=O)NC1COCC1=O` (some centres undefined) had a Ki of 0.061 µM.

`CC(C)C[C@H](NC(=O)c1ccccn1)C(=O)NC1COCC1=O` (some centres undefined): the affinity, expressed as Ki, was 0.42 µM.

As to `CC(O)[C@H](NC(=O)c1cc2ccccc2s1)C(=O)NC1COCC1=O` (some centres undefined), the Ki was over 10 µM.

`CC(C)C[C@H](NC(=O)c1ccc(S(C)(=O)=O)cc1)C(=O)NC1COCC1=O` (some centres undefined) gave a Ki of 0.71 µM. Then `CC(C)C[C@H](NC(=O)c1ccc(C(C)C)cc1)C(=O)NC1COCC1=O` (some centres undefined), with 0.064 µM; and `O=C(N[C@@H](Cc1ccccc1)C(=O)NC1COCC1=O)c1cc2ccccc2s1` (some centres undefined), with over 10 µM. Under `CC(C)C[C@H](NC(=O)c1ccc(C(C)(C)C)cc1)C(=O)NC1COCC1=O` (some centres undefined) stands 0.015 µM. Then `CC(=O)N[C@@H](CC(C)C)C(=O)NC1COCC1=O` (some centres undefined), with over 1 µM. In turn, `CC(C)C[C@H](NC(=O)c1cccs1)C(=O)NC1COCC1=O` (some centres undefined) returned a Ki of 0.64 µM.

Turning to `O=C(N[C@@H](CC1CCCCC1)C(=O)NC1COCC1=O)c1cc2ccccc2s1` (some centres undefined), the inhibition constant Ki is over 10 µM. Then `C[C@H](NC(=O)c1cc2ccccc2s1)C(=O)NC1COCC1=O` (some centres undefined), with over 10 µM; and `CC(C)C[C@H](NC(=O)C1CCCCC1)C(=O)NC1COCC1=O` (some centres undefined), with over 1 µM.

For `CC(C)C[C@H](NC(=O)OCc1ccccc1)C(=O)NC1COCC1=O` (some centres undefined), the affinity corresponds to a Ki of 0.14 µM.

`CC(C)C[C@H](NC(=O)c1ccc2cc[nH]c2c1)C(=O)NC1COCC1=O` (some centres undefined) had a Ki of 0.038 µM. Then `CCC[C@H](NC(=O)c1cc2ccccc2s1)C(=O)NC1COCC1=O` (some centres undefined), with 0.19 µM; and `CC(C)C[C@H](NC(=O)c1cccc([N+](=O)[O-])c1)C(=O)NC1COCC1=O` (some centres undefined), with over 1 µM. The compound `CC(C)C[C@H](NC(=O)c1ccc2ccccc2n1)C(=O)NC1COCC1=O` (some centres undefined) came in with a Ki of 0.044 µM.
